Reference: ChEMBL document CHEMBL1201862, “PubChem BioAssay data set” (2004)
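Grown in 96-well plates, cells were treated for 48 hours with each compound at five concentrations. Insufficient inhibition: endpoint recorded as highest concentration tested. At the GI50, growth is halved.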 The source made the active and inactive calls. Rule as the data show it: active = GI50 up to about 1.1 µM and inactive = higher.

Legend:
Assay in all cases: DTP human tumour cell line panel, 48 h
DU-145 = system: DU-145
SN12C = system: SN12C
SNB-75 = system: SNB-75
IGROV-1 = system: IGROV-1
NCI-H460 = system: NCI-H460
RXF 393 = system: RXF 393
HOP-62 = system: HOP-62
HT-29 = system: HT-29
OVCAR-5 = system: OVCAR-5
MDA-N = system: MDA-N
A549 = system: A549
COLO 205 = system: COLO 205
T47D = system: T47D
PC-3 = system: PC-3
SK-MEL-2 = system: SK-MEL-2
U-251 = system: U-251
EKVX = system: EKVX

Compound | GI50 (DU-145) | GI50 (SN12C) | GI50 (SNB-75) | GI50 (IGROV-1) | GI50 (NCI-H460) | GI50 (RXF 393) | GI50 (HOP-62) | GI50 (HT-29) | GI50 (OVCAR-5) | GI50 (MDA-N) | GI50 (A549) | GI50 (COLO 205) | GI50 (T47D) | GI50 (PC-3) | GI50 (SK-MEL-2) | GI50 (U-251) | GI50 (EKVX)
O=C1c2c[nH]nc2C(c2ccccc2)N1c1ccccc1 (stereo unspecified) | > 10 µM (inactive) | > 10 µM (inactive) | > 10 µM (inactive) | > 10 µM (inactive) | > 10 µM (inactive) | > 10 µM (inactive) | > 10 µM (inactive) | > 10 µM (inactive) | > 10 µM (inactive) | > 10 µM (inactive) | > 10 µM (inactive) | > 10 µM (inactive) | > 10 µM (inactive) | > 10 µM (inactive) | > 10 µM (inactive) | > 10 µM (inactive) | > 10 µM (inactive)
O=C1CCCC(=O)N1n1c(Cc2ccccc2)n[nH]c1=O | > 100 µM (inactive) | > 100 µM (inactive) | > 100 µM (inactive) | > 100 µM (inactive) |  | > 100 µM (inactive) | > 100 µM (inactive) | > 100 µM (inactive) | > 100 µM (inactive) | > 100 µM (inactive) | > 100 µM (inactive) | > 100 µM (inactive) | > 100 µM (inactive) | > 100 µM (inactive) | > 100 µM (inactive) | > 100 µM (inactive) | > 100 µM (inactive)
COC(=O)[C@H](Cc1ccccc1)NC(=O)OCC1OC(n2cc(C)c(=O)[nH]c2=O)CC1N=[N+]=[N-] (stereo partly specified) | > 100 µM (inactive) | > 100 µM (inactive) | 78.3 µM (inactive) | > 100 µM (inactive) | > 100 µM (inactive) | > 100 µM (inactive) | > 100 µM (inactive) | > 100 µM (inactive) | > 100 µM (inactive) | > 100 µM (inactive) | > 100 µM (inactive) | > 100 µM (inactive) | > 100 µM (inactive) | > 100 µM (inactive) | > 100 µM (inactive) | > 100 µM (inactive) | > 100 µM (inactive)
COc1ccc(C2CC(=O)CC(c3ccc(OC)cc3)C23C(=O)NC(=S)NC3=O)cc1 (stereo unspecified) | > 100 µM (inactive) | > 100 µM (inactive) | > 100 µM (inactive) | > 100 µM (inactive) | > 100 µM (inactive) | > 100 µM (inactive) | > 100 µM (inactive) | > 100 µM (inactive) | > 100 µM (inactive) | > 100 µM (inactive) |  | > 100 µM (inactive) | > 100 µM (inactive) | > 100 µM (inactive) | > 100 µM (inactive) | > 100 µM (inactive) | > 100 µM (inactive)
O=C1CNCCCN2CCN(CCCNCC(=O)Nc3ccc(cc3)S(=O)(=O)c3ccc(cc3)NC(=O)CNCCCN3CCN(CCCNCC(=O)Nc4ccc(cc4)S(=O)(=O)c4ccc(cc4)N1)CC3)CC2 | 41.4 µM (inactive) | > 45.3 µM (inactive) | 37.2 µM (inactive) | 21.2 µM (inactive) | 10.4 µM (inactive) | 28.6 µM (inactive) | 25.1 µM (inactive) | 27.2 µM (inactive) | 31.4 µM (inactive) | 19.3 µM (inactive) | 57.3 µM (inactive) | 34.8 µM (inactive) | 27.9 µM (inactive) | 42.3 µM (inactive) | 35.1 µM (inactive) | 24.5 µM (inactive) | 36.6 µM (inactive)
COc1cc2c(c(OC)c1OC)C(=O)[C@@H]1[C@H]2N1C(N)=O | 61.4 µM (inactive) | > 100 µM (inactive) | 66.2 µM (inactive) | 94.8 µM (inactive) | 98.2 µM (inactive) | 79.8 µM (inactive) | > 100 µM (inactive) | > 100 µM (inactive) | 87.3 µM (inactive) | 88.5 µM (inactive) | > 100 µM (inactive) | 91.2 µM (inactive) | > 100 µM (inactive) | > 100 µM (inactive) |  | 47 µM (inactive) | > 100 µM (inactive)
CC(=O)OC12c3ccccc3-c3ccccc3C1C(C(=O)O)C2(Cl)C(=O)O (stereo unspecified) | > 10 µM (inactive) | > 10 µM (inactive) | > 10 µM (inactive) | > 10 µM (inactive) | > 10 µM (inactive) | > 10 µM (inactive) | > 10 µM (inactive) | > 10 µM (inactive) | > 10 µM (inactive) | > 10 µM (inactive) |  | > 10 µM (inactive) | > 10 µM (inactive) | > 10 µM (inactive) | > 10 µM (inactive) | > 10 µM (inactive) | > 10 µM (inactive)
O=C(OCc1ccccc1[N+](=O)[O-])N1c2ccccc2[C@@]23O[C@]24CCC[C@H]3C#C/C=C\C#C[C@H]14 | > 100 µM (inactive) | 13.7 µM (inactive) |  | > 100 µM (inactive) | 0.362 µM (active) | > 100 µM (inactive) |  | 38.1 µM (inactive) | 66.7 µM (inactive) | > 100 µM (inactive) | 4.02 µM (inactive) | 67.3 µM (inactive) | 73.8 µM (inactive) | 14.8 µM (inactive) | > 100 µM (inactive) | 11 µM (inactive) | > 100 µM (inactive)
COc1cc2c(cc1-c1coc3cc(O)ccc3c1=O)OCO2 [CUNEATIN] | 39.6 µM (inactive) | 25.4 µM (inactive) | 20.5 µM (inactive) | 22.9 µM (inactive) | 18.1 µM (inactive) |  | 16.4 µM (inactive) | 99.3 µM (inactive) | 40.2 µM (inactive) | 48.9 µM (inactive) | 30.3 µM (inactive) | > 100 µM (inactive) | 29.6 µM (inactive) | 43 µM (inactive) | 37 µM (inactive) | 21.5 µM (inactive) | 34.4 µM (inactive)
